Source: patent publication US10669240B2, “5-substituted indazole-3-carboxamides and preparation and use thereof” (Samumed, LLC, priority 2014, dated 2020)
pEC50, pIC50: −log10 of the molar value. Values belong to the compound of their own block, whether it stands above or below them.

Key:
Format in all cases: cell-based
DYRK1A = DYRK1A (Homo sapiens (Human), UniProt Q13627); assay: DYRK1A activity Tau assay: pSer396 Tau in SH-SY5Y cells by ELISA / western blot; details: overnight (16-18 h) exposure
Source text: In another example, in vitro assays for DYRK1A biological activity may be used, e.g. regulation of microtubule-associated protein tau (MAPT/Tau) phosphorylation in neuronal cell line such as the human SH-SY5Y neuroblastoma cell line. Assays for DYRK1a-regulated level of phosphorylation can include monitoring levels of basal pSer396 Tau, which can be measured, for example, by serial dilutions of a candidate inhibitor composition using a ten micromolar top concentration and detected by ELISA or Western Blotting. An exemplary assay for DYRK-1a-regulated phosphorylation uses the SH-SY5Y cells cultured in a 96 well plate format for a period of time sufficient to stabilize microtubules and Tau phosphorylation, usually at least 2 days, then treated with a 1/3 serial dilution of compounds overnight and lysed. The cell lysate is resolved by SDS PAGE, then transferred to nitrocellulose and probed with an antibody specific for pSer396 Tau.
In a further example, the activity of a candidate compound can be measured by ELISA by adding the lysate mentioned above onto total Tau-coated plates and detected with a specific pSer396 antibody.

[1] = system: primary human mesenchymal stem cells (hMSCs); assay: Chondrogenesis assay in primary human mesenchymal stem cells, nodule count vs TGF-β3 positive control; details: 6 days
Source text: The above synthesized compounds were screened using primary human mesenchymal stem cells (hMSCs) to determine their ability to induce chondrogenesis (process by which cartilage is developed).
Human Mesenchymal Stem Cell Culture:
Primary human mesenchymal stem cells (hMSCs) were purchased from Lonza (Walkersville, Md.) and expanded in Mesenchymal Stem Cell Growth Media (Lonza). Cells between passage 3 and 6 were used for the experiments.
Number of nodules in each well was normalized to the average of 3 DMSO treated wells on the same plate using Excel (Microsoft Inc.). The normalized averages (fold change over DMSO) of 3 replicate wells for each compound concentration were calculated. Due to solubility limitations of some of the compounds, curve fitting was incomplete leading to inaccurate EC50 determinations.
Using TGF-β3 as a positive control, the concentration of test compounds required to induce equivalent levels of chondrogenesis is reported. In addition, the maximum activity of each compound and the respective dose that each compound reached maximum chondrogenesis activity is reported.

[2] = system: Wnt activity (Wnt-responsive SP5 promoter luciferase reporter in SW480 cells); assay: Wnt activity reporter assay: SW480 cells with SP5 promoter-driven firefly luciferase; details: Homo sapiens, 24 h after compound addition, read-out: Wnt inhibition
Source text: The above synthesized compounds were screened using the assay procedure for Wnt activity described below.
Reporter cell lines were generated by stably transducing cells of cancer cell lines (e.g., colon cancer) with a lentiviral construct that include a Wnt-responsive promoter driving expression of the firefly luciferase gene.
Lentiviral constructs were made in which the SP5 promoter, a promoter having eight TCF/LEF binding sites derived from the SP5 promoter, was linked upstream of the firefly luciferase gene. The lentiviral constructs included a hygromycin resistance gene as a selectable marker. The SP5 promoter construct was used to transduce SW480 cells, a colon cancer cell line having a mutated APC gene that generates a truncated APC protein, leading to de-regulated accumulation of β-catenin.
Cultured SW480 cells bearing a reporter construct were distributed at approximately 10,000 cells per well into 384 well multiwell plates. Compounds were then added to the wells in half-log dilutions using a three micromolar top concentration. A series of control wells for each cell type received only buffer and compound solvent. Twenty-four hours after the addition of compound, reporter activity for luciferases was assayed, for example, by addition of the BrightGlo luminescence reagent (Promega) and the Victor3 plate reader (Perkin Elmer). Readings were normalized to DMSO only treated cells, and normalized activities were then used for the IC50 calculations.

pEC50 (DYRK1A): 9.00
Structure (SMILES): O=C(Nc1cccnc1)c1n[nH]c2cc(F)c(-c3cncc(CN4CCCCC4)c3)cc12 [Compound 1153, 6-Fluoro-5-(5-(piperidin-1-ylmethyl)pyridin-3-yl)-N-(pyridin-3-yl)-1H-indazole-3-carboxamide]
Conc (nM) of Max. activity ([1]; 6-point dose-response 2700 nM to 10 nM, dose at which maximum chondrogenesis activity was reached): 2700 nM | Conc (nM) of 100% TGF-β3 activity ([1]; concentration required to induce chondrogenesis equivalent to TGF-β3 (10 ng/mL)): 900 nM | Max. Activity as % TGF-β3 activity ([1]; relative to TGF-β3 (10 ng/mL) positive control): 146%

Structure (SMILES): NC1CN(c2cncc(-c3ccc4[nH]nc(C(=O)Nc5cccc(F)c5)c4c3)n2)C1 [Compound 1318, 5-(6-(3-Aminoazetidin-1-yl)pyrazin-2-yl)-N-(3-fluorophenyl)-1H-indazole-3-carboxamide]
pIC50 [2]: 5.40 | pEC50 (DYRK1A): 8.22

Structure (SMILES): O=C(Nc1ccc(CN2CCCC2)cc1)c1n[nH]c2ccc(-c3cccc(F)c3F)cc12 [Compound 1327, 5-(2,3-Difluorophenyl)-N-(4-(pyrrolidin-1-ylmethyl)phenyl)-1H-indazole-3-carboxamide]
pIC50 [2]: 5.82 | pEC50 (DYRK1A): 7.51

Structure (SMILES): O=C(Nc1ccc(CN2CCCC2)cc1)c1n[nH]c2ccc(-c3cncnc3)cc12 [Compound 1328, 5-(Pyrimidin-5-yl)-N-(4-(pyrrolidin-1-ylmethyl)phenyl)-1H-indazole-3-carboxamide]
pIC50 [2]: 5.43 | pEC50 (DYRK1A): 8.40

Structure (SMILES): O=C(Nc1ccc(CN2CCCC2)cc1)c1n[nH]c2ccc(-c3cncc(F)c3)cc12 [Compound 1329, 5-(5-Fluoropyridin-3-yl)-N-(4-(pyrrolidin-1-ylmethyl)phenyl)-1H-indazole-3-carboxamide]
pIC50 [2]: 5.77 | pEC50 (DYRK1A): 9.00

Structure (SMILES): O=C(Nc1ccc(CN2CCCC2)cc1)c1n[nH]c2ccc(-c3cncc(Cl)c3)cc12 [Compound 1330, 5-(5-Chloropyridin-3-yl)-N-(4-(pyrrolidin-1-ylmethyl)phenyl)-1H-indazole-3-carboxamide]
pIC50 [2]: 5.26 | pEC50 (DYRK1A): 8.52

Structure (SMILES): Cc1cc2[nH]nc(C(=O)Nc3ccc(CN4CCCC4)cc3)c2cc1-c1cccnc1 [Compound 1331, 6-Methyl-5-(pyridin-3-yl)-N-(4-(pyrrolidin-1-ylmethyl)phenyl)-1H-indazole-3-carboxamide]
pIC50 [2]: 5.85 | pEC50 (DYRK1A): 7.77

Structure (SMILES): O=C(Nc1cc(CN2CCCC2)ccc1Cl)c1n[nH]c2ccc(-c3cccnc3)cc12 [Compound 1333, N-(2-Chloro-5-(pyrrolidin-1-ylmethyl)phenyl)-5-(pyridin-3-yl)-1H-indazole-3-carboxamide]
pIC50 [2]: 5.29 | pEC50 (DYRK1A): 8.05

Structure (SMILES): COc1ccc(NC(=O)c2n[nH]c3ccc(-c4cncc(N5CC(N)C5)n4)cc23)cn1 [Compound 1334, 5-(6-(3-Aminoazetidin-1-yl)pyrazin-2-yl)-N-(6-methoxypyridin-3-yl)-1H-indazole-3-carboxamide]
pIC50 [2]: 5.82 | pEC50 (DYRK1A): 8.70

Structure (SMILES): CN1CCC(NC(=O)c2n[nH]c3ccc(-c4cnccc4C(F)(F)F)cc23)CC1 [Compound 1340, N-(1-Methylpiperidin-4-yl)-5-(4-(trifluoromethyl)pyridin-3-yl)-1H-indazole-3-carboxamide]
pIC50 [2]: 5.74 | pEC50 (DYRK1A): 5.60

Structure (SMILES): O=C(Nc1ccc(F)cc1)c1n[nH]c2ccc(-c3cncc(F)c3)cc12 [Compound 1341, N-(4-Fluorophenyl)-5-(5-fluoropyridin-3-yl)-1H-indazole-3-carboxamide]
pIC50 [2]: 5.32 | pEC50 (DYRK1A): 7.44

Structure (SMILES): CC(C)(C)CN1CCC(NC(=O)c2n[nH]c3cc(F)c(-c4cccnc4)cc23)CC1 [Compound 1342, 6-Fluoro-N-(1-neopentylpiperidin-4-yl)-5-(pyridin-3-yl)-1H-indazole-3-carboxamide]
pIC50 [2]: 5.85 | pEC50 (DYRK1A): 7.89

Structure (SMILES): NC1CN(c2cncc(-c3ccc4[nH]nc(C(=O)Nc5cncc(-c6cccc(F)c6)c5)c4c3)n2)C1 [Compound 1344, 5-(6-(3-Aminoazetidin-1-yl)pyrazin-2-yl)-N-(5-(3-fluorophenyl)pyridin-3-yl)-1H-indazole-3-carboxamide]
pIC50 [2]: 5.53 | pEC50 (DYRK1A): 7.82
